In patent US20250304623A1, “PEPTIDES FOR INTRACELLULAR DELIVERY” (UNIVERSIDADE DE SANTIAGO DE COMPOSTELA, priority 2022, published 2025):
Starred links: 1 amine or outer side, 2 acyl side, 3 side chain; linkers in the order of their positions; H or OH if unused. Residues, ends and D or L forms follow the SMILES beside them. Groups on a side chain read outwards from the residue. *: point of attachment. Glutaryl = O=C(CCCC(=O)[*:2])[*:1]; NHNH2 = NN*

How the values were obtained:
Format in all cases: cell-based
HepG2 cells [1] = assay: EGFP mRNA delivery, robotic library screening, HepG2; conditions: for mean fluorescence intensity after transfection of EGFP mRNA: HepG2 cells
Protocol: Cells were seeded in a 96 well plate the day before the experiment at a concentration of 50,000 cell/mL (100 μL/w) in DMEM+10% FBS+1% Gln-Abt. For robotic library screening, the delivery of EGFP-mRNA (from TriLink, fully substituted with 5-methoxyuridine, capped and polyadenylated; TriLink, CleanCap® EGFP mRNA (5moU), ref. L-7201) in six different cell lines was performed. Amphiphilic molecule stock solutions were prepared in DMSO as described above and diluted in DMEM to afford a range of concentrations. The solutions of EGFP-mRNA/amphiphilic molecule complexes were freshly prepared prior to the transfection experiments. 35 μL of the corresponding amphiphile were added to 10 μL of a solution of EGFP-mRNA at 10 ng/μL in DMEM. The mixture was shaken for 30 min at room temperature before the addition to the cells. The cell medium was aspirated, and cells were washed with PBS twice. […] After the incubation, the medium was replaced by 100 μL of fresh DMEM supplemented with 10% FBS. The total EGFP fluorescence was quantified after 72 h in a well plate reader. Amphiphile transfection efficiency was compared and normalized to Lipofectamine® MessengerMax efficiency (value of 1 in Tables 1-5 and 7; double underlined numbers). All experiments were done in triplicate.
(§1) Tables 1-7: RLuc (pDNA) or EGFP (mRNA) expression levels were normalized to Lipofectamine reagents (value=1) and expressed as fold-times signal increase. In the case of siRNA, the siRNA treated cells fluorescence was compared with siMOCK control fluorescence, while Cas9-RNP mediated knockout was measured against the fluorescence of untreated cells. In both siRNA and Cas9-RNP, values are expressed as % fluorescence reduction. Amphiphile concentration was 5 μM in all cases. All experiments were performed in triplicate.
Tables 14-19 show the mean (triplicates) fluorescence intensity measured after the transfection of EGFP mRNA by different amphiphiles at different concentrations in a variety of cell lines. Background fluorescence values, accounted by untreated control cells, were subtracted for processing.

[2] = test system: HepG2 cells expressing EGFP; assay: EGFP-targeting siRNA delivery (GFP silencing vs siMOCK), HepG2
Protocol: To generate an EGFP expressing HeLa cell line, HeLa cells were transfected with EGFP pDNA (pEGFP-C1, Clontech) and stable transfectants were selected with 400 μg/mL of G-418 (Millipore). Green clones were selected by epifluorescence microscopy and tested for EGFP expression stability through several passages. […] All other EGFP-expressing cell lines were obtained in a similar way from parent non-EGFP-expressing cell lines.
Cells expressing EGFP were seeded in a 96 well plate the day before the experiment at a concentration of 50,000 cell/mL (100 μL/w) in DMEM+10% FBS+1% Gln-Abt. For robotic library screening, the delivery of an EGFP-targeting siRNA (EGFP: enhanced green fluorescent protein, Ambion® Silencer® GFP Positive Control siRNA (siGFP) (AM4626)) in six different cell lines expressing EGFP was performed. […] The mixture was shaken for 30 min at room temperature (rt) before the addition to the cells. The cell medium was aspirated, and cells were washed twice with PBS. Finally, 50 μL of the solution of siRNA/amphiphile complexes were added to the cells and incubated for 4 h. After transfection, the medium was replaced by 100 μL of fresh DMEM supplemented with 10% FBS. The fluorescence knockdown was quantified after 72 h in a plate reader, by comparison with cells transfected with a non-targeting siRNA control (siMOCK, Silencer™ Negative Control No. 1 siRNA (siMOCK) (AM4611)). EGFP knockdown was compared with Lipofectamine® RNAiMAX silencing efficiency (30-60% depending on cell line, defined with a numeric value in the below tables). All experiments were done in triplicate.
as §1
Tables 20-25 show the mean (triplicates) percentage of GFP-silencing, accounted by fluorescence intensity decrease relative to a non-targeting siRNA (siMOCK) control, measured after the transfection of siRNA by different amphiphiles at different concentrations in a variety of cell lines. Background values, accounted by untreated control cells, were subtracted for processing.

HepG2 cells [3] = assay: RLuc pDNA delivery, robotic library screening, HepG2
Protocol: Cells were seeded in a 96 well plate the day before the experiment at a concentration of 60,000 cell/mL (100 μL/w) in DMEM+10% FBS+1% Gln-Abt. For robotic library screening, the delivery of pDNA encoding for the expression of Renilla luciferase gene (RLuc, pRL-CMV (Promega, #E2261)) in six different cell lines was performed. Amphihilic molecule stock solutions in DMSO were diluted with DMEM and freshly mixed with pDNA stock solutions in DMEM prior to transfection experiments, to afford several complexes at different amphiphile concentration (2-10 μM) while maintaining a constant final pDNA concentration of 2 ng/μL. The mixture was shaken for 30 min at room temperature before the addition to the cells. The cell medium was aspirated, and cells were washed twice with PBS. Finally, 50 μL of the complex's solution were added to the cells and incubated for 4 h. After the incubation, the medium was replaced by 100 μL of fresh DMEM supplemented with 10% FBS. 72 hours after transfection the DMEM was removed, cells were washed once with HBSS and 90 μL of HBSS were added to each well. Cells were incubated at 37° C. for 30 minutes. Then basal luminescence levels were read in a plate reader. Immediately, 10 μL of coelenterazine h in HBSS were added to each well (5 μM final concentration) and cells were incubated at 37° C. for 10 minutes. Finally, the total luminescence measurement of the plates was performed. Amphiphile transfection efficiency was compared and normalized to Lipofectamine® 2000 efficiency (value of 1 in Tables 1-5 and 7; bold numbers). All experiments were done in triplicate.
as §1
Tables 8-13 show the mean (triplicates) luminescent intensity (RLU) measured after the transfection of RLuc pDNA by different amphiphiles at different concentrations in a variety of cell lines. Background luminescence values, accounted by untransfected control cells, were subtracted for processing.

Compound | mean fluorescence intensity after transfection of EGFP mRNA (HepG2 cells [1]; Dodecanal, 10 μM) | mean fluorescence intensity after transfection of EGFP mRNA (HepG2 cells [1]; Dodecanal, 15 μM) | mean fluorescence intensity after transfection of EGFP mRNA (HepG2 cells [1]; Oleyl, 5 μM) | mean fluorescence intensity after transfection of EGFP mRNA (HepG2 cells [1]; Palmitoleyl, 5 μM) | mean fluorescence intensity after transfection of EGFP mRNA (HepG2 cells [1]; Palmitoleyl, 10 μM) | mean fluorescence intensity after transfection of EGFP mRNA (HepG2 cells [1]; Petroselinyl, 5 μM) | mean fluorescence intensity after transfection of EGFP mRNA (HepG2 cells [1]; Petroselinyl, 10 μM) | percentage of GFP-silencing relative to siMOCK ([2]; Myristoleyl, 15 μM) [%] | percentage of GFP-silencing relative to siMOCK ([2]; Palmitoleyl, 15 μM) [%] | percentage of GFP-silencing relative to siMOCK ([2]; Petroselinyl, 15 μM) [%] | mean luminescent intensity (RLuc pDNA) (HepG2 cells [3]; Myristoleyl, 5 μM) [RLU] | mean luminescent intensity (RLuc pDNA) (HepG2 cells [3]; Myristoleyl, 10 μM) [RLU] | mean luminescent intensity (RLuc pDNA) (HepG2 cells [3]; Myristoleyl, 15 μM) [RLU] | mean luminescent intensity (RLuc pDNA) (HepG2 cells [3]; Oleyl, 5 μM) [RLU] | mean luminescent intensity (RLuc pDNA) (HepG2 cells [3]; Oleyl, 10 μM) [RLU] | mean luminescent intensity (RLuc pDNA) (HepG2 cells [3]; Palmitoleyl, 5 μM) [RLU] | mean luminescent intensity (RLuc pDNA) (HepG2 cells [3]; Palmitoleyl, 10 μM) [RLU] | mean luminescent intensity (RLuc pDNA) (HepG2 cells [3]; Palmitoleyl, 15 μM) [RLU] | percentage of GFP-silencing relative to siMOCK ([2]; Palmitoleyl, 10 μM) [%] | percentage of GFP-silencing relative to siMOCK ([2]; Petroselinyl, 5 μM) [%] | also measured
CC(=O)N[C@@H](CCCNC(=N)N)C(=O)N[C@@H](CCCCNC(=O)CCCC(=O)NN)C(=O)N[C@@H](Cc1c[nH]cn1)C(=O)N[C@@H](CCCNC(=N)N)C(=O)N[C@@H](CCCCNC(=O)CCCC(=O)NN)C(=O)N[C@@H](CCCCNC(=O)CCCC(=O)NN)C(=O)N[C@@H](Cc1c[nH]cn1)C(N)=O [7.3(L-H), Ac-RK*HRK*K*H-NH2] (Ac-RK([Glutaryl-NHNH2])HRK([Glutaryl-NHNH2])K([Glutaryl-NHNH2])H-NH2) | 201 | 533 | 4242 | 8855 | 3885 | 35842 | 18737 | −13 | 10 | 1 | 355590 | 584678 | 406961 | 142065 | 68668 | 642665 | 519370 | 265272 | – | – | mean fluorescence intensity after transfection of EGFP mRNA (HepG2 cells [1]; Dodecanal, 5 μM): 1140; mRNA delivery relative to Lipofectamine MessengerMAX (HepG2 cells [1]; HepG2, myristoleyl or petroselinyl aldehydes): able to outperform the activity of Lipofectamine® MessengerMAX; mean fluorescence intensity after transfection of EGFP mRNA (HepG2 cells [1]; Myristoleyl, 5 μM): 31364; mean fluorescence intensity after transfection of EGFP mRNA (HepG2 cells [1]; Myristoleyl, 10 μM): 12495; mean fluorescence intensity after transfection of EGFP mRNA (HepG2 cells [1]; Myristoleyl, 15 μM): 3194; mean fluorescence intensity after transfection of EGFP mRNA (HepG2 cells [1]; Oleyl, 10 μM): 1217; mean fluorescence intensity after transfection of EGFP mRNA (HepG2 cells [1]; Oleyl, 15 μM): 1484; mean fluorescence intensity after transfection of EGFP mRNA (HepG2 cells [1]; Petroselinyl, 15 μM): 4860; percentage of GFP-silencing relative to siMOCK ([2]; Oleyl, 10 μM): −9%; mean luminescent intensity (RLuc pDNA) (HepG2 cells [3]; Petroselinyl, 5 μM): 466959 RLU; mean luminescent intensity (RLuc pDNA) (HepG2 cells [3]; Petroselinyl, 10 μM): 437890 RLU; mean luminescent intensity (RLuc pDNA) (HepG2 cells [3]; Petroselinyl, 15 μM): 98868 RLU
Ac-RHLK*RHK*RRLK*RH-NH2 (Ac-RHLKRHKRRLKRH-NH2; not fully specified (residues 4, 7, 11); printed as Ac-RHLK*RHK*RRLK*RH-NH2; also: linker on K* not given here) [13(3His)] | – | – | – | – | – | – | – | – | – | – | 149920 | – | 29774 | – | 33557 | 65912 | – | 17170 | 6 | −1 | percentage of GFP-silencing relative to siMOCK ([2]; Myristoleyl, 10 μM): 8%; percentage of GFP-silencing relative to siMOCK ([2]; Petroselinyl, 10 μM): 19%; mean luminescent intensity (RLuc pDNA) (HepG2 cells [3]; Oleyl, 15 μM): 1389 RLU
Ac-RHLK*RLK*RRLK*RL-NH2 (Ac-RHLKRLKRRLKRL-NH2; not fully specified (residues 4, 7, 11); printed as Ac-RHLK*RLK*RRLK*RL-NH2; also: linker on K* not given here) [13(Arg-His)] | 782 | 868 | 5251 | 4616 | 2070 | 1986 | 508 | – | – | – | 270920 | 65274 | 23425 | 123820 | – | 211155 | 107841 | 24788 | 30 | 21 | mean fluorescence intensity after transfection of EGFP mRNA (HepG2 cells [1]; Palmitoleyl, 15 μM): 1943; mean luminescent intensity (RLuc pDNA) (HepG2 cells [3]; Dodecanal, 5 μM): 38257 RLU; mean luminescent intensity (RLuc pDNA) (HepG2 cells [3]; Dodecanal, 10 μM): 45978 RLU; mean luminescent intensity (RLuc pDNA) (HepG2 cells [3]; Dodecanal, 15 μM): 15867 RLU; mean luminescent intensity (RLuc pDNA) (HepG2 cells [3]; Oleyl, 15 μM): −1443 RLU; mean luminescent intensity (RLuc pDNA) (HepG2 cells [3]; Petroselinyl, 10 μM): 133806 RLU; mean luminescent intensity (RLuc pDNA) (HepG2 cells [3]; Petroselinyl, 15 μM): 41128 RLU
Ac-RK*LRRLLRK*-NH2 (Ac-RK(NHNH2)LRRLLRK(NHNH2)-NH2; not fully specified; printed as Ac-RK*LRRLLRK*-NH2; also: K*2,K*9: native or modified lysine (ε-amide to a linker)) [Peptide 9.2] | – | – | – | – | – | – | – | −22 | – | – | 26828 | 68860 | 46601 | – | – | – | – | – | – | – | percentage of GFP-silencing relative to siMOCK ([2]; Myristoleyl, 5 μM): −22%; mean luminescent intensity (RLuc pDNA) (HepG2 cells [3]; Dodecanal, 10 μM): 5678 RLU; mean luminescent intensity (RLuc pDNA) (HepG2 cells [3]; Dodecanal, 15 μM): 2289 RLU
Ac-RRLK*RLLRRLK*RL-NH2 (Ac-RRLK(NHNH2)RLLRRLK(NHNH2)RL-NH2; not fully specified; printed as Ac-RRLK*RLLRRLK*RL-NH2; also: K*4,K*11: native or modified lysine (ε-amide to a linker)) [Peptide 13.2] | – | – | 612 | – | – | – | – | – | 7 | 0 | – | – | – | – | – | – | – | – | 4 | −11 | percentage of GFP-silencing relative to siMOCK ([2]; Dodecanal, 10 μM): 13%; percentage of GFP-silencing relative to siMOCK ([2]; Dodecanal, 15 μM): −5%; percentage of GFP-silencing relative to siMOCK ([2]; Palmitoleyl, 5 μM): 16%; percentage of GFP-silencing relative to siMOCK ([2]; Petroselinyl, 10 μM): 2%
